Laboratory results: ChEMBL document CHEMBL3399982, “Azachalcones: a new class of potent polyphenol oxidase inhibitors” (Bioorg Med Chem Lett, 2015)

What was measured:
[1] = target: T1, Tyrosinase (Agaricus bisporus) (UniProt O42713); assay: Inhibition of mushroom tyrosinase assessed as inhibition of L-DOPA oxidase activity; conditions: concentration not given here
T1 sequence (whole entry): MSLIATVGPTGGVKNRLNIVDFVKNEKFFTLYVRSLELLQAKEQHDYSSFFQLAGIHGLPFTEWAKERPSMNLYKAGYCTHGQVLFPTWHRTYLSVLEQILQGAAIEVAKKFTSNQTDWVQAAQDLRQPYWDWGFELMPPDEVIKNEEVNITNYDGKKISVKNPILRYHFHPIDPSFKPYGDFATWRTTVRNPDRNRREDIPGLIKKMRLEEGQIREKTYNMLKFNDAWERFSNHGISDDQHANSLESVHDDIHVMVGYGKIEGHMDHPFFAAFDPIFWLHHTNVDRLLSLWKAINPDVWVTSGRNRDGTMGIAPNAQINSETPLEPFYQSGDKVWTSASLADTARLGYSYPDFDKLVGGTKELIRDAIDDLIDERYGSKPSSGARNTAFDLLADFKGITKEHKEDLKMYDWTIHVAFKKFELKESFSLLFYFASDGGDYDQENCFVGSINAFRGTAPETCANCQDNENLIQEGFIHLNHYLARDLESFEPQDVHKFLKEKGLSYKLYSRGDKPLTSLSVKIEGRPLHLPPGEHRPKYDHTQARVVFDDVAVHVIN

Tyrosinase [2] = target: T2, Tyrosinase (Agaricus bisporus, UniProt O42713)
T2 sequence (O42713 whole entry): T1 sequence (whole entry)

Tyrosinase [3] = target: T2, Tyrosinase; assay: Competitive inhibition of mushroom tyrosinase assessed as inhibition of L-DOPA oxidase activity

SMILES | inhibition [1] | Ki (Tyrosinase [2]) | IC50 (Tyrosinase [3])
O=C(/C=C/c1cccnc1)c1ccccc1O | 49.3% | – | –
O=C(/C=C/c1ccc2ccccc2n1)c1ccccc1O | 8.9% | – | –
O=C(/C=C/c1cccc([N+](=O)[O-])c1)c1ccccc1O | 42.2% | – | –
O=C(/C=C/c1cnc2ccccc2c1)c1ccccc1O | 12.3% | – | –
CN(C)c1ccc(/C=C/C(=O)c2ccccc2O)cc1 | 27.2% | – | –
CN(C)c1ccc(/C=C/C(=O)c2ccccn2)cc1 | 39.7% | – | –
COc1ccc(/C=C/C(=O)c2ccccn2)c(OC)c1 | 42.7% | – | –
O=C(/C=C/c1cccc([N+](=O)[O-])c1)c1ccccc1 | 18% | – | –
O=C(/C=C/c1ccccn1)c1ccccc1O | 56.8% | – | –
O=C(/C=C/c1ccncc1)c1ccccc1O | 39.7% | – | –
Oc1ccccc1C(O)/C=C/c1ccccn1 (configuration not stated) | 80.2% | 2620 nM | 1700 nM
Oc1ccccc1C(O)/C=C/c1ccncc1 (configuration not stated) | 57.2% | 8100 nM | 2300 nM
O=C(/C=C/c1ccccn1)c1ccccc1 | 34% | – | –
